Patent US4640931A, “3-(indian-5-yloxy (or thio)) cyclopentanecarboxylic acid analogues” (Ono Pharmaceutical Co., Ltd., priority 1984, dated 1987)

Experiments:
[1] = tested on: organ slice of cat cerebral cortex (cerebral edema); assay: inhibition test on cerebral edema using organ slice of cat cerebral cortex (NaHCO3-stimulated swelling); assay type: cell-based; details: for IC50: Felis catus, 50 min, cat cerebral cortex slices, NaHCO3 stimulated swelling, 50 minutes at 37° C., pH 7.4, read-out: Inhibitory activity cerebral edema (IC50); for Relative activity (Compound A = 1): relative to Compound A = 1
Experimental: The inhibition test on cerebral edema using organ slice of cat cerebral cortex The test was carried out by the method described in Journal of Medicinal Chemistry, vol. 25 (No. 5) 567 (1982).
That is, brain was isolated from a cat weighing 2-4 kg, slices of about 1 mm in thickness was prepared, the white matter substance was removed, and the gray matter substance (100-150 mg a test) was used for a sample. The sample was added to the following incubation medium and incuvated for 50 minutes at 37° C. After the incubation, the sample was immediately weighed again to determine the swelling weight of the sample. […]
incubation medium (osmotic pressure, 280-290 mOsm/1)
1. Hepes Buffer (pH 7.4) . . . 2.365 ml […]
adjusted to pH 7.4 by NaOH
2. test compounds [dissolved in the presence of tris(hydroxymethyl)aminomethane] or water . . . 0.01 ml 3. 0.2M NaHCO3 (dissolved by Hepes Buffer, giving the final concentration of 10 mM in medium) or Hepes Buffer . . . 0.125 ml The test was carried out by using NaHCO3 as a stimulating agent of swelling.
(A) A percentage of swelling when a slice sample was added to incubation medium comprising Hepes Buffer (1), water (2) and NaHCO3 (3) (defined as maximum of swelling).
(B) A percentage of swelling when a slice sample was added to incubation medium comprising Hepes Buffer ((1)+(3)) and water (2) (defined as maximum inhibition of swelling).
(C) A percentage of swelling when a slice sample was added to incubation medium comprising Hepes Buffer (1), the test compounds in various concentrations (2) and NaHCO3 (3).
Above-mentioned (A), (B) and (C) were determined. Inhibition percentage of the test compounds was caliculated by the following equation: [formula] IC50 value was determined by dose-response curve as a concentration in which inhibition percentage was 50.

acute toxicity test = details: in vivo, iv; administered intravenously
Description: On the other hand, it was confirmed that the acute toxicity of the compounds of the present invention was very weak. […] Therefore, compounds of the present invention may be considered to be sufficiently safe and suitable for medical use.

[2] = tested on: organ slice of cat cerebral cortex (cerebral edema); details: in words, known DCPIB; cited from earlier work

SMILES	IC50 [1]	Relative activity (Compound A = 1) [1]	LD50 (acute toxicity test)	inhibitory effect on cerebral edema [2]
C[C@@]1(C2CCCC2)Cc2cc(O[C@H]3CC[C@H](C(=O)O)C3)c(Cl)c(Cl)c2C1=O [Ex. 2 (c), (1S, 3S)-3-[((2S)-2-cyclopentyl-2-methyl-6,7-dichloro-1-oxoindan-5-yl)oxy]cyclopentanecarboxylic acid]	1.6 nM	20.0		
CC1(C2CCCC2)Cc2cc(O[C@H]3CC[C@H](C(=O)O)C3)c(Cl)c(Cl)c2C1=O (mixture of isomers) [Ex. 2 (a), (1S, 3S)-3-[((2RS)-2-cyclopentyl-2-methyl-6,7-dichloro-1-oxoindan-5-yl)oxy]cyclopentanecarboxylic acid]	1.5 nM	21.3	200 to 400 mg/kg	
CC1(C2CCCC2)Cc2cc(O[C@H]3CC[C@H](C(=O)O)C3)c(Cl)c(Cl)c2C1=O (relative stereo) [Ex. 2, 1,3-trans-3-[((2RS)-2-cyclopentyl-2-methyl-6,7-dichloro-1-oxoindan-5-yl)oxy]cyclopentanecarboxylic acid]	2.5 nM	12.8		
C[C@]1(C2CCCC2)Cc2cc(OCCCC(=O)O)c(Cl)c(Cl)c2C1=O [Compound A, (+)-4-[((2R)-2-cyclopentyl-2-methyl-6,7-dichloro-1-oxoindan-5-yl)oxy]butyric acid, reference compound]	32 nM			strong, but the effect is not enough to use in practice
CC1(C2CCCC2)Cc2cc(S[C@H]3CC[C@H](C(=O)O)C3)c(Cl)c(Cl)c2C1=O (mixture of isomers) [Ex. 2 (b), (1S, 3S)-3-[((2RS)-2-cyclopentyl-2-methyl-6,7-dichloro-1-oxoindan-5-yl)thio]cyclopentanecarboxylic acid]	5.9 nM	5.42		
